Experiments:
[1] = tested on: wire worm (Agriotes sp.) larvae; assay: Efficacy test of corn seed treatment against Agriotes sp.; assay type: in vivo; settings: corn seeds coated, 42 days; for Healthy stock ratio: 50 g compound per 50,000 seeds, 12 larvae per 12-seed container, outdoors
Description: Efficacy test of corn seed treatment against Agriotes sp.
(§1) The compound (1) (30 parts), tristyryl-based surfactant (6.0 parts), dioctylsulfosuccinate metal salt (1.5 parts), silicone-based defoamer (1.2 parts), xanthan gum (0.2 parts), 1,2-benzisothiazolin-3-one (0.1 parts), propylene glycol (5.0 parts), and water (56 parts) were mixed to prepare a reagent solution.
Corn seeds were coated with the reagent solution so that the treatment amount of the compound (1) was 50 g per 50,000 seeds.
Further, corn seeds were similarly coated with tefluthrin as a control agent so that the treatment amount was 10 g per 50,000 seeds.
The treated seeds were planted in a 12-seed container and inoculated with 12 wire worm (Agriotes sp.) larvae. The container was placed outdoors, and 42 days later, the number of healthy stocks and the number of damaged stocks were investigated to determine the efficacy. The test was repeated 4 times.
The healthy stock ratio was calculated using the following formula.
Healthy stock ratio (%)=100×(number of healthy stocks/number of seeds)

Phyllotreta striolata = assay: Efficacy test of rape seed treatment against Phyllotreta striolata; assay type: in vivo; settings: rape seeds coated, 10 g per 100 kg of seeds; inoculated 14 days after planting; 6 days after releasing the insects; 25° C., humidity 65%
Description: Efficacy test of rape seed treatment against Phyllotreta striolata
as §1, with “(I)” for “(1)”
Rape seeds were coated with the reagent solution so that the treatment amount of the compound (I) was 10 g per 100 kg of seeds.
The treated seeds were planted in a 10-seed pot and raised in a greenhouse for 14 days. After that, each pot was inoculated with 5 Phyllotreta striolata. The pots were stored in a constant temperature room at a temperature of 25° C. and at a humidity of 65%.
The life/death determination was made 6 days after releasing the insects, and the insecticidal rate was calculated by the following formula. The test was repeated 3 times.
Insecticidal rate (%)=(number of dead insects/number of test insects)×100

SMILES | Healthy stock ratio [1] [%] | Insecticidal rate (Phyllotreta striolata) [%] | healthy stock rate ([1]; control agent, 10 g per 50,000 seeds) [%] | Healthy stock ratio ([1]; unit not given)
CCS(=O)(=O)c1cc(C2CC2)cnc1-c1ncc(C=C(Cl)C(F)(F)F)n1C [formula (II)] | 83.3 | 100 | – | –
Cc1c(F)c(F)c(COC(=O)[C@@H]2[C@H](/C=C(\Cl)C(F)(F)F)C2(C)C)c(F)c1F (racemic) [tefluthrin, reference compound] | – | – | 62.5 | –
CCS(=O)(=O)c1cc(C2CC2)cnc1-c1ncc(C(F)C(F)(C(F)(F)F)C(F)(F)F)n1C (centres unmarked) [formula (III)] | – | 100 | – | 81.3

From patent publication US20240108004A1, “METHOD FOR CONTROLLING INSECTS IN CROP PLANTS, SEEDS AND COMPOSITION” (Nippon Soda Co., Ltd., priority 2021, published 2024)
